Structures can show the parent of a compound that is named as a salt.
Legend:
[1] = test system: carrigeenan-induced swelling; experiment: Anti-edema test (carrageenin-induced hind paw edema); assay type: in vivo, male Wistar rats (Taiwan strain); conditions: one hour before carrigeenan, measured three hours after injection, rat
Experimental: (§1) The first test is for adjuvant arthritis inhibition and the second, an anti-edema test, involves the diminution of experimental edema induced in the hind paw of a rat by the injection of carrageenin.
Anti-edema effect was determined according to the test procedure recited by Winter, C.A., Risley, E. A., and Nuss, G. W., Proc. Exper. Biol. Med. 111:544-547, 1962. For this test, three male Wistar rats (Taiwan strain) weighing 100-120 g each are orally dosed with test compound dissolved or suspended in 3 ml of water. One hour later, the plantar surface of the right hind paw was injected with 0.1 ml of a 1 percent suspension of carrigeenan in saline and the left paw was similarly injected with saline only. Three hours after the injection the volume of both hind paw was measured by fluid displacement and the percent decrease in carrigeenan-induced swelling (volume of carrigeenan injected foot minus saline injected foot) was determined by comparison with untreated (no test compound) animals. Greater than 30 percent inhibition is considered evidence of an anti-edema effect.

adjuvant arthritis = experiment: Adjuvant arthritis inhibition (hind-foot volume, primary and secondary lesions); assay type: in vivo, Wistar male rats (Taiwan strain); conditions: five daily doses, rat; for Percent Reduction in Edema of the Primary Lesion: injected right hind paw measured four hours after fifth dose; for Percent Reduction in Edema of the Secondary Lesion: uninjected foot measured fourteen days after adjuvant inoculation
Text: as §1
This test was run according to the test procedure recited by VanArman, G. C., Nuss, G. W. and Risley, E. A., J. Pharmacol..Exper. Terap., 187:400-413, 1973. The following is a description of the test: • The hind-foot volumes of five Wistar male. rats (Taiwan strain) weighing 130-160 g each were measured by fluid displacement immediately prior to intraplantar administration (right hind paw) of 0.1 ml of an adjuvant suspension containing 5 milligrams (mg) Mycobacterium butyricum bacilli suspended in heavy mineral oil. Test compounds were orally administered to the animals for five days beginning the day before injection of the adjuvant. Four hours after the fifth daily drug dose the volume of the right hind paw (primary lesion) was measured for determination of any acute anti-inflammatory effect. Fourteen days after adjuvant inoculation the volume of the uninjected foot was measured (secondary lesion) for determination of prolonged anti-inflammatory effect or immunosuppressant effect. The percent reduction in foot volume was calculated for each hind paw in relation to corresponding control values determined simultaneously. A greater than 30 percent reduction in volume of either paw is considered a significant effect. Reduction of the primary lesion without effect on the secondary lesion denotes acute anti-inflammatory activity of short to moderate duration.

Systolic blood pressure = experiment: Anti-hypertensive screening (systolic blood pressure by tail cuff); assay type: in vivo, normotensive Wistar rats (Taiwan strain); conditions: 100 mg/kg oral, rat
Experimental: This test was run according to the test procedure recited by Nagoaka, A., Kikuchi, K. and Aramaki, Y., Jap. J. Pharmacol., 19:401-408, 1969. For this test, two normotensive Wistar rats (Taiwan strain) were placed in perspex holders and then placed in a heated chamber at 40°C for 4-6 minutes before treatment. They were maintained there throughout each experiment. Systolic blood pressure was recorded by indirect means employing a tail cuff and pneumatic sensor device applied to the base of the animals' tails. The device was coupled to a programmed Narco-Biosystems sphygmomano meter (Model PE-300), an instrument for measuring blood pressure, and Sanei polygraph. After recording suitably steady blood pressure readings, test drugs were orally administered and blood pressure checked again 2, 4 and 6 hours after drug administration. A mean decrease of more than 10 percent from the pretreatment value at any two consecutive measurement intervals is considered evidence of hypotensive effect.

SMILES | Reduction of Induced Edema ([1]; 100 mg/kg oral) [%] | Percent Reduction in Edema of the Primary Lesion (adjuvant arthritis; 100 mg/kg oral) [%] | Percent Reduction in Edema of the Secondary Lesion (adjuvant arthritis; 100 mg/kg oral) [%] | Percent Mean Decrease in Systolic Blood Pressure (Systolic blood pressure; 2 hours after administration) [%] | Percent Mean Decrease in Systolic Blood Pressure (Systolic blood pressure; 4 hours after administration) [%] | Percent Mean Decrease in Systolic Blood Pressure (Systolic blood pressure; 6 hours after administration) [%] | further results
COc1ccc(NC(=S)N=CN(C)C)cc1 [Compound 1, 1-(p-methoxyphenylthiocarbamyl) 3,3-dimethyl formamidine hydrochloride] |  |  |  |  |  |  | Reduction of Induced Edema ([1]; 5 mg/kg oral): 35%; Percent Reduction in Edema of the Primary Lesion (adjuvant arthritis; 5 mg/kg oral): 39%; Percent Reduction in Edema of the Secondary Lesion (adjuvant arthritis; 5 mg/kg oral): 35%
CN(C)C=NC(=S)Nc1ccc(Cl)cc1 [Compound 2] |  |  |  |  |  |  | Reduction of Induced Edema ([1]; 25 mg/kg oral): 32%
CCc1cccc(CC)c1NC(=S)N=CN(C)C [Compound 3] | 33 | 39 | 31 |  |  |  | 
Cc1ccc(NC(=S)N=CN(C)C)c(C)c1 [Compound 4] |  | 0 | 0 | 4 | 17 | 15 | 
CCCCC1C(=O)N(c2ccccc2)N(c2ccccc2)C1=O [phenylbutazone, reference compound] | 41 |  |  |  |  |  | 
C[C@](N)(Cc1ccc(O)c(O)c1)C(=O)O [α-methyl 3,4-dihydroxy-phenylalanine, reference compound] |  |  |  | 11 | 21 | 19 | 

From patent EP0075047A1, “1-(Substituted phenylthiocarbamyl) 3,3-disubstituted formamidines and their production and pharmaceutical compositions containing them” (STAUFFER CHEMICAL COMPANY, priority 1981, dated 1983)
